Test [1] deals with DNA dC->dU-editing enzyme APOBEC-3A (Homo sapiens, UniProt P31941). The experiment in a line: A3A deaminase inhibition for selectivity – biochemical, dose response (AID 504722). Type of test: functional.
In the next test the target is Large T antigen (Simian virus 40, UniProt P03070). Type of test: functional, Betapolyomavirus macacae.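 Note: Confirmatory-stage PubChem screen for compounds that inhibit SV40 T antigen.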
The target in test [2] is DNA dC->dU-editing enzyme APOBEC-3G (Homo sapiens, UniProt Q9HC16). The test can be described thus: Dose Response confirmation of small molecule APOBEC3G DNA Deaminase Inhibitors via a fluorescence-based single-stranded DNA deaminase assay. [Related pubchem assays (depositor defined):AID493012, AID493028]. Type of test: functional.
Test [3] addresses T1, RNA-binding protein pos-1 (Caenorhabditis elegans, UniProt G5EF15).
T1 sequence (G5EF15 whole entry): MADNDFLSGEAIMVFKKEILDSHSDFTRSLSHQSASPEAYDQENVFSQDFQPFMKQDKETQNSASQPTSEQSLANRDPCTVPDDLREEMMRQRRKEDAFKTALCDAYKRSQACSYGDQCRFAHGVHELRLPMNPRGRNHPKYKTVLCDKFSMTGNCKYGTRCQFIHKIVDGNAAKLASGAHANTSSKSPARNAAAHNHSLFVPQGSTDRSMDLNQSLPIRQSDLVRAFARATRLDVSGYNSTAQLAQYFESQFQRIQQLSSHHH
The test can be described thus: disruptors of C. elegans POS-1 RNA interaction – biochemical, fluorescence polarization, dose response (AID 1964).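 Note: purified POS-1 fused to maltose binding protein made in E. coli; potency of compounds blocking POS-1 binding to fluorescent RNA.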 In general terms: Fluorescence polarisation rises when a labelled molecule tumbles more slowly, as on binding a larger partner.

Test [4] has as its target G-protein coupled receptor 55 (Homo sapiens, UniProt Q9Y2T6). The test can be described thus: inhibition of LPI-stimulated GPR55 beta-arrestin translocation – imaging, U2OS, beta-arrestin-GFP, LPI agonist, primary screen (AID 2013).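 Note: antagonist potency measured as reduced agonist-driven arrestin aggregation.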 In kind it is functional.
Test [5] concerns the target T2, Zinc finger protein mex-5 (Caenorhabditis elegans, UniProt Q9XUB2).
T2 sequence (Q9XUB2 whole entry): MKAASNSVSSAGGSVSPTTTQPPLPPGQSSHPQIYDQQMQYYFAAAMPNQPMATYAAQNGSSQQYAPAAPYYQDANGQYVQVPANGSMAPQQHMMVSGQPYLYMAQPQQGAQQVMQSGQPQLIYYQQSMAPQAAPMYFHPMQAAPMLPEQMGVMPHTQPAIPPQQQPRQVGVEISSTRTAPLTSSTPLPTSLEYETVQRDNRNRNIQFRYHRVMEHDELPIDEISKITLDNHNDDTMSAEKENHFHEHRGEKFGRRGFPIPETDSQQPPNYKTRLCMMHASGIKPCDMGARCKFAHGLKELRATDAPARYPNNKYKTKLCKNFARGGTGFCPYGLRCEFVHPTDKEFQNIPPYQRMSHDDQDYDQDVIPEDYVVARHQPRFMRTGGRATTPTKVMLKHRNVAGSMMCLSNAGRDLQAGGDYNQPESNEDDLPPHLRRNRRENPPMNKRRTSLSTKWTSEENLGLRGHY
The experiment in a line: potency of MEX-5 RNA-binding blockers – biochemical, C. elegans, fluorescence polarization, dose response (AID 1960).

The target in test [6] is Peroxisome proliferator-activated receptor gamma/Nuclear receptor coactivator 1 (Homo sapiens, UniProt P37231). Type of test: functional.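 Note: agonist potency as compounds enhance coactivator SRC-1 recruitment to PPARgamma.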
Test [7] concerns the target Peroxisome proliferator-activated receptor gamma/Nuclear receptor coactivator 2 (Homo sapiens, UniProt P37231). Type of test: functional.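 Note: agonist potency for raising coactivator recruitment to the receptor.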
Test [8] deals with Peroxisome proliferator-activated receptor gamma/Nuclear receptor coactivator 3 (Homo sapiens, UniProt P37231). In kind it is functional.
For test [9], the target named is T3, Heat shock factor protein 1 (Mus musculus, UniProt P38532).
T3 sequence (P38532 whole entry): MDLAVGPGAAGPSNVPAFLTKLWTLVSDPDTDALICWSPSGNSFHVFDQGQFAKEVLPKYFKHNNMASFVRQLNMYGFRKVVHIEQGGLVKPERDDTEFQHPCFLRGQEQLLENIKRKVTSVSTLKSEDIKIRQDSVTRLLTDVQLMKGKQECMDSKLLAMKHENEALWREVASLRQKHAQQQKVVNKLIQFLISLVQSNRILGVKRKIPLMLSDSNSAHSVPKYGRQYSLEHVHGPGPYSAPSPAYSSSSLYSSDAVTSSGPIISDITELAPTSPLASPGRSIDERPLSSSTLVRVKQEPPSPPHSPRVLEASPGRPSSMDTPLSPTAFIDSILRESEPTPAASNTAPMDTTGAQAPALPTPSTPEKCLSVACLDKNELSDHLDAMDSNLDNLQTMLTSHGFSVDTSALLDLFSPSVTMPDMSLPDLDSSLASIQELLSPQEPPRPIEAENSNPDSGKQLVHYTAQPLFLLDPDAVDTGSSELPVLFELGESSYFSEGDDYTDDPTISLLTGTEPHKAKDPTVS
The experiment in a line: decrease of HSF1-responsive luciferase luminescence – cell-based, NIH3T3, dose retest, confirmation (AID 2382).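 Note: NIH3T3 fibroblasts with HSF1-driven luciferase reporter stressed by proteasome inhibitor MG132; luminescence from HSF1-driven luciferase expression after 8 hours of MG132 stress.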 In kind it is functional.

The next test concerns the target T4, Leucine aminopeptidase (Plasmodium falciparum 3D7, UniProt Q8IL11).
T4 sequence (Q8IL11 whole entry): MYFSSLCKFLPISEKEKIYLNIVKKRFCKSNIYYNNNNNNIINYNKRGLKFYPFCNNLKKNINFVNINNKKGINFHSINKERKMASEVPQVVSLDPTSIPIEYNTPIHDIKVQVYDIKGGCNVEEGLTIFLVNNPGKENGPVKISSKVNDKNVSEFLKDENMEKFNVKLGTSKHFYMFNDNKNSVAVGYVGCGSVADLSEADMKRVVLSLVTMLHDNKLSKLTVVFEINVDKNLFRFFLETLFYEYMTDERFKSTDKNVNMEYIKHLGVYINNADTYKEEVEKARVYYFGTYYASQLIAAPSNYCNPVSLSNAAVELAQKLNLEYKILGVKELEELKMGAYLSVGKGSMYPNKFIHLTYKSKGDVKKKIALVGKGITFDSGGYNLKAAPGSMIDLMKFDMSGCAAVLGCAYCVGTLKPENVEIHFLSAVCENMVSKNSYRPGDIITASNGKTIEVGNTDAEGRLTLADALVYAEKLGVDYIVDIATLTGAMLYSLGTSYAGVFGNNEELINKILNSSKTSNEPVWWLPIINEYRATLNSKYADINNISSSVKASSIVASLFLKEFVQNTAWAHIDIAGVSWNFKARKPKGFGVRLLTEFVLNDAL
The test can be described thus: P. falciparum M17LAP inhibitors, primary screen, biochemical, fluorogenic H-Leu-NHMec substrate, 1536-well (AID 1619). In kind it is functional.

In another test the test system is HeLa. The test can be described thus: viability loss in HeLa cells – cell-based, 24 h, cherry-picked samples, cytotoxicity control, dose response (AID 504726).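 Note: potency for cytotoxicity as loss of luminescence signal.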 Type of test: functional. To be noted: Homo sapiens.
Test [10] deals with HEK293. The experiment in a line: NOD2 signaling inhibitors in MDP-stimulated cells, cell-based, uHTS, luminescence (AID 2001). Type of test: functional. To be noted: Homo sapiens.
Test [11] deals with HEK293. The experiment in a line: cells. In kind it is functional, cell-based. The note with it: Homo sapiens.
The subject of test [12] is HEK293. The experiment in a line: cells. Type of test: functional, cell-based. To be noted: Homo sapiens. This is another data set of the same source.
For test [13], the system named is HEK293. The experiment in a line: cells. Type of test: functional, cell-based. The note with it: Homo sapiens. This is another data set of the same source.
Test [14] relates to HEK293. The test can be described thus: inhibition of NOD1-driven NF-kB reporter – cell-based, luminescence, uHTS, primary screen (AID 1578). In kind it is functional. To be noted: Homo sapiens.
Test [15] deals with Nucleotide-binding oligomerization domain-containing protein 2 (Homo sapiens, UniProt Q9HC29). The experiment in a line: inhibition of NOD2-driven NF-kB reporter – cell-based, luminescence, uHTS, HEK293 (AID 1566). Type of test: functional.
The target of another test is T5, Mucolipin-3 (Homo sapiens, UniProt Q8TDD5).
T5 sequence (Q8TDD5 whole entry): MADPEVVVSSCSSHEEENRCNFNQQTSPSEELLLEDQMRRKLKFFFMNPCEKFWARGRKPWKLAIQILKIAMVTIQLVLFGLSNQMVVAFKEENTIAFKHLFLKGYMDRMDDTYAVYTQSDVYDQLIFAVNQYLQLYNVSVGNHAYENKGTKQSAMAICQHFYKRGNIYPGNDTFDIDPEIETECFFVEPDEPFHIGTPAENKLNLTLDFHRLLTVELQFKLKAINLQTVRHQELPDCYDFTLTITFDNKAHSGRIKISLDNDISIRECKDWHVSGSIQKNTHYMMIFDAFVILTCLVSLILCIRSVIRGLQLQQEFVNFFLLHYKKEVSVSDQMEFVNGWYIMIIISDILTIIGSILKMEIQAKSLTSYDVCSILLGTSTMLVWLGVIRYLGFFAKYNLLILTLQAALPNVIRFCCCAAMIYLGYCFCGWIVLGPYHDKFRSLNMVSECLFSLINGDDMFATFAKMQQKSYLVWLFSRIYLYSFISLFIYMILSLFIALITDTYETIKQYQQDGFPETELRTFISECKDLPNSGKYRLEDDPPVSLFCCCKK
The test can be described thus: Dose response cell-based high-throughput screening assay for agonists of the transient receptor potential channel ML3 (TRPML3). [Related pubchem assays: 1526, 1424, 1448 ]. In kind it is functional.

In the next test the target is Ion channel NompC (Danio rerio, UniProt Q7T1G6). The experiment in a line: Fluorescence counterscreen assay for TRPML3 agonists: dose response cell-based high-throughput screening assay to identify agonists of the transient receptor potential channel N1 (TRPN1). [Related pubchem assays: 1526, 1424, 1448 ]. In kind it is functional.

The source made the active and inactive calls.

The text below walks through data of ChEMBL document CHEMBL1201862, “PubChem BioAssay data set” (2004).

Ion channel NompC, sequence (Q7T1G6 whole entry): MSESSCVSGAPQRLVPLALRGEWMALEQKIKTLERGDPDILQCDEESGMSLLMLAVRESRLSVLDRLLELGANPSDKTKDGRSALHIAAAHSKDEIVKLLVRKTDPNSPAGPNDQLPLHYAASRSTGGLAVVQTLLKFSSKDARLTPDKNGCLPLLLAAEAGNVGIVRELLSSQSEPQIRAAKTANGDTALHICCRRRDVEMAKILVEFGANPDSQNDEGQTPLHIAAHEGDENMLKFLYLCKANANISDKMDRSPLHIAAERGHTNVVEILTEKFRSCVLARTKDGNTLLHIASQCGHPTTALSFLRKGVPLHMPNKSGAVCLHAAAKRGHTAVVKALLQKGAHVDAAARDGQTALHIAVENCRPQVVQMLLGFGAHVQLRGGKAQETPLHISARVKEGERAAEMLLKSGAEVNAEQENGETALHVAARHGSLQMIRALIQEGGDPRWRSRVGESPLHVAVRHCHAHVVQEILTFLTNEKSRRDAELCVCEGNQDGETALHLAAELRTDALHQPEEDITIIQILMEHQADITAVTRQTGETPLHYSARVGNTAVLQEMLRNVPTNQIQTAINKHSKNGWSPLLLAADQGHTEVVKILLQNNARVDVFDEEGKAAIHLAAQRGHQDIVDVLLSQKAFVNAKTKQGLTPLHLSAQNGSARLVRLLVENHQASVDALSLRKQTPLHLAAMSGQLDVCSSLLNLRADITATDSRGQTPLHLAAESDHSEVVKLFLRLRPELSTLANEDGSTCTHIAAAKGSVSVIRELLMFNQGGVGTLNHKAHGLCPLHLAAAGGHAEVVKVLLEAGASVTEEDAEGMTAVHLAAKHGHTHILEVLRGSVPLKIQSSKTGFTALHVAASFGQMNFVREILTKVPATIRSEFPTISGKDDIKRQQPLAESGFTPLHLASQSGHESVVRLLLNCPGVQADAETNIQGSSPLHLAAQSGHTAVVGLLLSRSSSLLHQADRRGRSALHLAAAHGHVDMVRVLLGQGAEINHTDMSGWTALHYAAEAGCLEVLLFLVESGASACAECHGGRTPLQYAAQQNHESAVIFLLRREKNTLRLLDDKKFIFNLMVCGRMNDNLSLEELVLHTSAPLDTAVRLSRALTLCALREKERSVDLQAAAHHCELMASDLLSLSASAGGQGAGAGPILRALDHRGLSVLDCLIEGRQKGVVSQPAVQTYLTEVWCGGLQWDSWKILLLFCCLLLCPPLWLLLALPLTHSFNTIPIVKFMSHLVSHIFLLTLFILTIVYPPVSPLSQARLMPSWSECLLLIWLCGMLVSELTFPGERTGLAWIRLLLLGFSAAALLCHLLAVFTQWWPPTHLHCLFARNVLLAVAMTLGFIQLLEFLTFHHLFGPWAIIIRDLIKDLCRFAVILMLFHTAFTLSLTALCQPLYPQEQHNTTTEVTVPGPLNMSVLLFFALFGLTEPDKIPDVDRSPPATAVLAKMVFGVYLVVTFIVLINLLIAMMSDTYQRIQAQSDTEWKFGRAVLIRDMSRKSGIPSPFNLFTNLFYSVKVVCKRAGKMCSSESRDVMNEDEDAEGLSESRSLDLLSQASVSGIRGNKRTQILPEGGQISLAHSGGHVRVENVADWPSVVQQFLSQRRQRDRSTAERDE
Peroxisome proliferator-activated receptor gamma/Nuclear receptor coactivator 1, sequence (P37231 whole entry): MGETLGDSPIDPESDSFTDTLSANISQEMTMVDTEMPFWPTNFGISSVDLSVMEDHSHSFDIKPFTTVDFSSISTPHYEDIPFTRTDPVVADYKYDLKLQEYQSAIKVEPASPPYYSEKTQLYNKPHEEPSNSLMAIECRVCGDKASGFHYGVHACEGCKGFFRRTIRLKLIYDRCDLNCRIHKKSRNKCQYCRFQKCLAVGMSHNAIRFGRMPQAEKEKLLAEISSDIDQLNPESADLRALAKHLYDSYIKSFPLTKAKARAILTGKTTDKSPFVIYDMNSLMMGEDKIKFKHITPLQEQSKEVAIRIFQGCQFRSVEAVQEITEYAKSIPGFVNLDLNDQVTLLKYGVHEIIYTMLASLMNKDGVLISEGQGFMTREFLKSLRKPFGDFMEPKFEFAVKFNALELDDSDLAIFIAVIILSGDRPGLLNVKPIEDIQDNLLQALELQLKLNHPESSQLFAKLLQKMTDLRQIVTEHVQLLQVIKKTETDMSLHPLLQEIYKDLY
Peroxisome proliferator-activated receptor gamma/Nuclear receptor coactivator 1, sequence (Q15788 whole entry, further chain): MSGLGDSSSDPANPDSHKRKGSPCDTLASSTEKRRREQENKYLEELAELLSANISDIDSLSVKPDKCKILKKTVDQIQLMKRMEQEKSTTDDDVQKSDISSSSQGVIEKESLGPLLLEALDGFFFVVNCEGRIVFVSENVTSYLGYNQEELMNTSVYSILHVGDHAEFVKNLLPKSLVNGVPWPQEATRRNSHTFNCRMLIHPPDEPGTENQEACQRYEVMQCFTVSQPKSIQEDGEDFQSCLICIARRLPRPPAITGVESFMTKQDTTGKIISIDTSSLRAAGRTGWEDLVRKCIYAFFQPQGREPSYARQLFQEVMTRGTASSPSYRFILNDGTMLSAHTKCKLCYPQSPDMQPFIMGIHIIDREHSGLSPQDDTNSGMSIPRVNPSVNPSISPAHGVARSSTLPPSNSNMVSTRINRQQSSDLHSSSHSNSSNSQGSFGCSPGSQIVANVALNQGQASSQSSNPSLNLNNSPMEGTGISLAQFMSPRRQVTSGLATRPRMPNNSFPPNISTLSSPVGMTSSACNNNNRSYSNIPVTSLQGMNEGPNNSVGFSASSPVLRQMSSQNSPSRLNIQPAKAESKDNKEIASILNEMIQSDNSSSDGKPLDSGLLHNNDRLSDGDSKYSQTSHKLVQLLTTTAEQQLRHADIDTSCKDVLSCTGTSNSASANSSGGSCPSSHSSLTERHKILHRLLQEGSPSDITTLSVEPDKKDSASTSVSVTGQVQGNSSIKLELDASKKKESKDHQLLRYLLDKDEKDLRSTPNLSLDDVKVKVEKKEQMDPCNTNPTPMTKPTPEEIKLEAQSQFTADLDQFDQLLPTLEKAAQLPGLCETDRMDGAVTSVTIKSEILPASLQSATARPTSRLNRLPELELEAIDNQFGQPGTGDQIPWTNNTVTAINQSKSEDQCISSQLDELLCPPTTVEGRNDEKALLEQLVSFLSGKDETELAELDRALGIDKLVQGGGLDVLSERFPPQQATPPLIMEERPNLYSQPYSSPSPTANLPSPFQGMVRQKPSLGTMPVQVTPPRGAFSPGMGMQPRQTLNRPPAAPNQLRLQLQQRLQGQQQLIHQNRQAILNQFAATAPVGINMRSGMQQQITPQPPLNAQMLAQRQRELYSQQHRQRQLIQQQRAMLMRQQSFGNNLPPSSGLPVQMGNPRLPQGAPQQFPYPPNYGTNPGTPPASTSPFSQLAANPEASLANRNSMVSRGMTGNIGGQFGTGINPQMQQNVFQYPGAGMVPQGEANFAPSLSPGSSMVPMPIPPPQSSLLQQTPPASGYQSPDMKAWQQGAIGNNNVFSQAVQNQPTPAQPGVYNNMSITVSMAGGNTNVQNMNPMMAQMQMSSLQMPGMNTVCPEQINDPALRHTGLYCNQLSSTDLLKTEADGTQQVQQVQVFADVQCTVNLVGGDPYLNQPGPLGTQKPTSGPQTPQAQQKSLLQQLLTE
DNA dC->dU-editing enzyme APOBEC-3A, sequence (P31941 whole entry): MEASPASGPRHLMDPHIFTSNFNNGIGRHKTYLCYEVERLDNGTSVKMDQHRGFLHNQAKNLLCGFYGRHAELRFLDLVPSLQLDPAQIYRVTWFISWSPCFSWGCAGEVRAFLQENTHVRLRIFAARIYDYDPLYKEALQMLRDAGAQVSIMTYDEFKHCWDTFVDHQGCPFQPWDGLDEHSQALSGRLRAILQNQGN
DNA dC->dU-editing enzyme APOBEC-3G, sequence (Q9HC16 whole entry): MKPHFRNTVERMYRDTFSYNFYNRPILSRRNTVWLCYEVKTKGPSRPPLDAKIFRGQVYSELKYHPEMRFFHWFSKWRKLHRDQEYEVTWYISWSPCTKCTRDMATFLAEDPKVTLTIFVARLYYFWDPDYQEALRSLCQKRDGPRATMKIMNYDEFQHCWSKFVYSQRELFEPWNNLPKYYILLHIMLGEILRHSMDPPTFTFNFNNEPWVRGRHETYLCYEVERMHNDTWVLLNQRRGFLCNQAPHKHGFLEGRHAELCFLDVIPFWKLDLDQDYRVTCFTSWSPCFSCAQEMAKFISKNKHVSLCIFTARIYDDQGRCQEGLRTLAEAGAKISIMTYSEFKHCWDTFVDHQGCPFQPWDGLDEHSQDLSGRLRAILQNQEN
G-protein coupled receptor 55, sequence (Q9Y2T6 whole entry): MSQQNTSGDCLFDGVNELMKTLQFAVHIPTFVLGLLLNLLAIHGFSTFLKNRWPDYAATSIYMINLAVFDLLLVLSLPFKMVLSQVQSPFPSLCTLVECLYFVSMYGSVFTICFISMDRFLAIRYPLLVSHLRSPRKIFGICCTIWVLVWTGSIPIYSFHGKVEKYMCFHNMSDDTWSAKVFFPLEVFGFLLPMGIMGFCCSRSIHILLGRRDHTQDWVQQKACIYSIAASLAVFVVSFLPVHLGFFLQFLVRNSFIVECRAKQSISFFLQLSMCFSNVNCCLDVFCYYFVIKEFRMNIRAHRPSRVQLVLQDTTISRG

What is called IC50 is the concentration at which inhibition is half-maximal. As for `COc1cc(/C=N/n2c(S)nnc2-c2[nH]nc3c2CCC3)ccc1O`, the IC50 in test [1] is > 100 µM (inactive); on Large T antigen it was 7.5 µM (active); in [2], 1.56 µM (active).
The EC50 is the concentration giving half of the maximal effect. As to `Cc1ccc(/C=C2/C(=O)NC(=O)N(CCc3ccc(F)cc3)C2=O)o1`, the results for the EC50 in test [3] and in test [5] were > 300 µM (not active) and 290 µM (active), respectively. Further, the half-maximal inhibitory concentration (IC50) in [4] is 4.5 µM (active).
For the compound `Cn1ncc([N+](=O)[O-])c1C(=O)N/N=C/c1ccc(F)cc1`, the EC50 in [6], in [7] and in [8] was > 79.4 µM (not active) throughout.
Regarding `CC(C)[C@H](NC(=O)OC(C)(C)C)c1nnc(SCc2cccc(F)c2)o1`, the figures for the EC50 in [6], in test [7] and in test [8] were 8.46 µM (active), 24 µM (not active) and 16.9 µM (not active), respectively.
In general, AC50 refers to the concentration at which the activity in the assay is half-maximal. As for `CC(Sc1nc2ccccc2s1)C(=O)Nc1nnc(C(C)C)s1` (stereo not given), the concentration for a half-maximal effect (EC50) in [9] was > 195 µM (not active). Also, the IC50 on Leucine aminopeptidase is 2.84 µM (active). Also, the AC50 in the test with HeLa was > 350 µM (inactive).
Consider `CCOC(=O)c1c(C)n(C)c2ccc(OCCN(C)C)cc12`, for which, in the test with HeLa, the AC50 was > 350 µM (inactive).
Regarding `Cc1cc(C(=O)COc2cccnc2[N+](=O)[O-])c(C)n1Cc1cccs1`, the IC50 in the test on HEK293 [10], in the test on HEK293 [11], in the test with HEK293 [12] and with HEK293 [13] was > 20 µM (inactive) throughout. Also, the EC50 was > 20 µM (inactive) in the test with HEK293 [14] and 8.89 µM (active) in test [15].
`CCOC(=O)C1CCN(CCC(=O)Nc2ccc(C)c(C)c2)CC1`: the EC50 in test [6], in test [7] and in test [8] was > 79.4 µM (not active) in each case.
Take `CCC1CCCCN1S(=O)(=O)c1ccc(S(=O)(=O)N(Cc2cccs2)C2CC2)cc1` (stereo not given): the EC50 on Mucolipin-3 is 1.16 µM (active); at Ion channel NompC it was > 29.9 µM (not active).
For the compound `COc1cccc2cc(-c3n[nH]c(=S)n3C)oc12`, the IC50 in test [1] was > 100 µM (inactive); in [2], 2.18 µM (active).
Regarding `CC1CC(C)CN(C(=O)c2ccc3ncsc3c2)C1` (stereo not given), in the test with HeLa, the concentration at half-maximal activity (AC50) was 95.4 µM (active).
Consider `COc1ccc(C(=O)Nc2ccc(S(=O)(=O)N3CCCCC3C)cc2)c(OC)c1OC` (stereo not given), for which the EC50 is 1.78 µM (active) on Mucolipin-3 and > 29.9 µM (not active) on Ion channel NompC.
For the compound `Cc1ccc(S(=O)(=O)N2CCC(C)CC2)cc1[N+](=O)[O-]`, the EC50 is > 195 µM (not active) in test [9], 3.51 µM (active) on Mucolipin-3 and > 29.9 µM (not active) on Ion channel NompC.
